# ± gives the expanded uncertainty stated by the source.
# Assay: wn = mass fraction of the nth substance listed
# Conditions: 101.3 kPa, Liquid, Vibrating tube method
SMILES,"mass density (283.15 K, w1 = 0.0695)","mass density (303.15 K, w1 = 0.1382)","mass density (313.15 K, w1 = 0.1853)","mass density (283.15 K, w1 = 0.0569)","mass density (303.15 K, w1 = 0.1084)","mass density (313.15 K, w1 = 0.1419)"
"O=C(O)CCCCC(=O)O [1,6-hexanedioic acid] + CCO",837.4 ± 0.5 kg/m3,852.3 ± 0.5 kg/m3,870.4 ± 0.5 kg/m3,–,–,–
O=C(O)CCC(=O)O [butanedioic acid] + CCO,–,–,–,836.8 ± 0.5 kg/m3,843.8 ± 0.5 kg/m3,868.6 ± 0.5 kg/m3
